Where two headings read alike, the source gives them in different places.

These results are taken from patent US20240166693A1, “METHODS AND COMPOUNDS FOR MODULATING MYOTONIC DYSTROPY 1” (Design Therapeutics, Inc., priority 2020, published 2024).

The subject of this experiment is Myotonic Dystrophy 1 affected patient fibroblasts (Coriell GM04602; 1600 CTG repeats). The experiment in a line: DM1 foci reduction assay (CAG10-Cy3 FISH, average foci per nucleus). Type of experiment: cell-based. The conditions noted are these: Homo sapiens, Fibroblast. In short, it runs like this:
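DM1 patient fibroblasts (GM04602, 1600 CTG) treated 48 h at 37 °C, 8-point 1:3 dilutions from 3 μM top dose; wild-type GM07492 as control. PFA-fixed, ethanol-permeabilized cells hybridized overnight with 5 nM CAG10-Cy3 probe, DAPI-counterstained, imaged at 20× in 4 fields; average foci per nucleus per well.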

Where [1] appears, read: 48 h, read-out: Foci Reduction in Fibroblast EC50, 48 h (nM).
The mark [2] stands for this setting: DM1 fibroblasts, 48 h treatment, 8-point dose response, 3 μM top dose, read-out: Foci Reduction in Fibroblast EC50, 48 h.

A word on the EC50: it is the concentration that produces a half-maximal response. Turning to `CCN(CC)CCCC[C@H](NC(=O)[C@H](CC(C)C)NC(=O)[C@H](C)NC(=O)[C@H](Cc1ccccc1)NC(=O)c1ccc(C(C)(C)C)cc1)C(=O)N[C@@H](CO)C(=O)N1CCN(CCOCCOCCOCCOCCNC(=O)CCNC(=O)c2nc(NC(=O)c3cc(NC(=O)CCNC(=O)c4nc(NC(=O)CCCNC(=O)c5cc(NC(=O)c6nc(NC(=O)CCNC(=O)c7cc(NC(=O)c8nccn8C)cn7C)cn6C)cn5C)cn4C)cn3C)cn2C)CC1` [Compound 185], under setting [1], the EC50 was in the range of 100 to 500 nM.

As for `CCN(CC)CCCC[C@H](NC(=O)[C@H](CC(C)C)NC(=O)[C@H](C)NC(=O)[C@H](Cc1ccccc1)NC(=O)c1ccc(C(C)(C)C)cc1)C(=O)N[C@@H](CO)C(=O)NCCOCCOCCOCCOCCN1CCN(C2CCN(C(=O)CCNC(=O)c3nc(NC(=O)c4cc(NC(=O)CCNC(=O)c5nc(NC(=O)CCCNC(=O)c6cc(NC(=O)c7nc(NC(=O)CCNC(=O)c8cc(NC(=O)c9nccn9C)cn8C)cn7C)cn6C)cn5C)cn4C)cn3C)CC2)CC1` [Compound 186], the EC50 under setting [1] is > 500 nM.

Consider `CCN(CC)CCCC[C@H](NC(=O)[C@H](CC(C)C)NC(=O)[C@H](C)NC(=O)[C@H](Cc1ccccc1)NC(=O)c1ccc(C(C)(C)C)cc1)C(=O)N[C@@H](CO)C(=O)NCCOCCOCCOCCOCCN1CCN(C(=O)CCNC(=O)c2nc(NC(=O)c3cc(NC(=O)CCNC(=O)c4nc(NC(=O)CCCNC(=O)c5cc(NC(=O)c6nc(NC(=O)CCNC(=O)c7cc(NC(=O)c8nccn8C)cn7C)cn6C)cn5C)cn4C)cn3C)cn2C)CC1` [Compound 187], for which, under setting [1], the concentration giving a half-maximal response (EC50) lay in the range of 100 to 500 nM.

In the case of `CCN(CC)CCCC[C@H](NC(=O)[C@H](CC(C)C)NC(=O)[C@H](C)NC(=O)[C@H](Cc1ccccc1)NC(=O)c1ccc(C(C)(C)C)cc1)C(=O)N[C@@H](CO)C(=O)NCCOCCOCCOCCOCCOCCN(CCCCN=[N+]=[N-])C(=O)CCNC(=O)c1nc(NC(=O)c2cc(NC(=O)CCNC(=O)c3nc(NC(=O)CCCNC(=O)c4cc(NC(=O)c5nc(NC(=O)CCNC(=O)c6cc(NC(=O)c7nccn7C)cn6C)cn5C)cn4C)cn3C)cn2C)cn1C` [Compound 189], under setting [1], the EC50 was < 100 nM.

On to `CCCCCCNc1nc(NC2CCN(CCOCCOCCOCCOCCOCCNC(=O)CCNC(=O)c3nc(NC(=O)c4cc(NC(=O)CCNC(=O)c5nc(NC(=O)CCCNC(=O)c6cc(NC(=O)c7nc(NC(=O)CCNC(=O)c8cc(NC(=O)c9nccn9C)cn8C)cn7C)cn6C)cn5C)cn4C)cn3C)CC2)c2cc(OC)c(OC)cc2n1` [Compound 190], for which, under setting [2], the EC50 is > 500 nM.

As for `CCCCCCNc1nc(NC2CCN(CCOCCOCCOCCOCCOCCOCCOCCOCCOCCOCCNC(=O)CCNC(=O)c3nc(NC(=O)c4cc(NC(=O)CCNC(=O)c5nc(NC(=O)CCCNC(=O)c6cc(NC(=O)c7nc(NC(=O)CCNC(=O)c8cc(NC(=O)c9nccn9C)cn8C)cn7C)cn6C)cn5C)cn4C)cn3C)CC2)c2cc(OC)c(OC)cc2n1` [Compound 191], under setting [2], the EC50 is > 500 nM.

Regarding `COc1cc2nc(N3CCCCC3)nc(NC3CCN(CCOCCOCCOCCOCCOCCNC(=O)CCNC(=O)c4nc(NC(=O)c5cc(NC(=O)CCNC(=O)c6nc(NC(=O)CCCNC(=O)c7cc(NC(=O)c8nc(NC(=O)CCNC(=O)c9cc(NC(=O)c%10nccn%10C)cn9C)cn8C)cn7C)cn6C)cn5C)cn4C)CC3)c2cc1OC` [Compound 192], under setting [2], the EC50 was > 500 nM.

`COc1cc2nc(N3CCCCC3)nc(NC3CCN(CCOCCOCCOCCOCCOCCOCCOCCOCCOCCOCCNC(=O)CCNC(=O)c4nc(NC(=O)c5cc(NC(=O)CCNC(=O)c6nc(NC(=O)CCCNC(=O)c7cc(NC(=O)c8nc(NC(=O)CCNC(=O)c9cc(NC(=O)c%10nccn%10C)cn9C)cn8C)cn7C)cn6C)cn5C)cn4C)CC3)c2cc1OC` [Compound 193]: the EC50 under setting [2] was > 500 nM.

On to `CCN(CC)CCCC[C@H](NC(=O)[C@H](CC(C)C)NC(=O)[C@H](C)NC(=O)[C@H](Cc1ccccc1)NC(=O)c1ccc(C(C)(C)C)cc1)C(=O)N[C@@H](CO)C(=O)NCCOCCOCCOCCOCCOCCNC(=O)CCNC(=O)c1cc(NC(=O)c2nc(NC(=O)CCNC(=O)c3nc(NC(=O)CCCNC(=O)c4cc(NC(=O)c5nc(NC(=O)c6cc(NC(=O)CCNC(=O)c7nccn7C)cn6C)cn5C)cn4C)cn3C)cn2C)cn1C` [Compound 285], for which, under setting [1], the EC50 is > 500 nM.
